Reference: patent publication US20060263802A1 (priority 2003, published 2006)

Experiments:
Assay type in all cases: binding
[1] = test system: human monoclonal antibody CRJB
[2] = test system: human monoclonal antibody CR57
[3] = test system: human monoclonal antibody CRJA
[4] = test system: human monoclonal antibody CRJA; remark: listed apart in the source
[5] = test system: human monoclonal antibody CR57; remark: listed apart in the source
[6] = test system: human monoclonal antibody CRJB; remark: listed apart in the source

Sequence | Binding of CRJB to linear peptide (PEPSCAN-ELISA signal) [1] | Binding of CR57 (10 μg/ml) to looped/cyclic peptide (PEPSCAN-ELISA) [2] | Binding of CRJA (10 μg/ml) to looped/cyclic peptide (PEPSCAN-ELISA) [3] | Binding of CRJA to linear peptide (PEPSCAN-ELISA signal) [4] | Binding of CR57 to linear peptide (PEPSCAN-ELISA signal) [5] | Binding of CRJB (10 μg/ml) to looped/cyclic peptide (PEPSCAN-ELISA) [6] | Binding of human monoclonal antibody CRJB to linear peptide (PEPSCAN-ELISA signal) [1] | Binding of CR57 to looped/cyclic peptide (PEPSCAN-ELISA signal) [2] | Binding of CRJA to looped/cyclic peptide (PEPSCAN-ELISA signal) [3] | Binding of human monoclonal antibody CRJA to linear peptide (PEPSCAN-ELISA signal) [4] | Binding of human monoclonal antibody CR57 to linear peptide (PEPSCAN-ELISA signal) [5] | Binding of CRJB to looped/cyclic peptide (PEPSCAN-ELISA signal) [6] | Binding of CR57 (10 μg/ml) to looped/cyclic peptide (PEPSCAN-ELISA signal) [2] | Binding of CRJA (10 μg/ml) to looped/cyclic peptide (PEPSCAN-ELISA signal) [3] | Binding of CRJB (10 μg/ml) to looped/cyclic peptide (PEPSCAN-ELISA signal) [6]
ASKGSETCGFVDERG | 108 | 96 | 120 | 106 | 97 | 94 | – | – | – | – | – | – | – | – | –
HPLADPSTVFKDGDE | – | – | – | – | – | – | 141 | 111 | 115 | 100 | 74 | 93 | – | – | –
NLVVEDEGCTNLSGF | 119 | – | – | 85 | 75 | – | – | – | – | – | – | – | 106 | 74 | 92
KCSGVAVSSTYCSTN | 130 | – | – | 111 | 88 | – | – | – | – | – | – | – | 101 | 78 | 83
KESLVIISPSVADLD | 117 | – | – | 123 | 86 | – | – | – | – | – | – | – | 86 | 83 | 85
KRASKGSETCGFVDE | 106 | 120 | 101 | 97 | 92 | 85 | – | – | – | – | – | – | – | – | –
HPHVNGVFFNGIILG | 138 | 104 | 91 | 89 | 104 | 99 | – | – | – | – | – | – | – | – | –
TTTFKRKHFRPTPDA | 108 | – | – | 76 | 80 | – | – | – | – | – | – | – | 90 | 93 | 99
AVSSTYCSTNHDYTI | 105 | – | – | 102 | 71 | – | – | – | – | – | – | – | 129 | 91 | 79
FVDERGLYKSLKGAC | 121 | 97 | 92 | 116 | 86 | 79 | – | – | – | – | – | – | – | – | –
LDKLGPWSPIDIHHL | 99 | – | – | 59 | 55 | – | – | – | – | – | – | – | 93 | 82 | 65
GSETCGFVDERGLYK | 115 | 64 | 64 | 56 | 57 | 71 | – | – | – | – | – | – | – | – | –
SRGKRASKGSETCGF | 93 | – | – | 70 | 64 | – | – | – | – | – | – | – | 96 | 82 | 86
SPSVADLDPYDRSLH | 114 | – | – | 72 | 59 | – | – | – | – | – | – | – | 76 | 51 | 63
LAIKMNGFTCTGVVT | 130 | – | – | 112 | 68 | – | – | – | – | – | – | – | 76 | 79 | 91
